# Results reported in patent publication US8574831B2, “Mutational profiles in HIV-1 reverse transcriptase correlated with phenotypic drug resistance” (Virco N.V., priority 2000, dated 2013).
# Tested on: HIV with mutations in the HIV protease sequence
# Test: Phenotypic fold resistance to protease inhibitors, protease mutations 84A/84L/84C/54M/54L/54V in a background (Examples 8-13)
# Format: cell-based, HIV-1
# Description: As is the case with the genotyping assays, the recombinant virus assay starts with the amplification of viral target sequences by means of PCR. The amplicons are incorporated into a proviral laboratory clone with sequences homologous to those present in the amplicon deleted. This generates a stock of chimeric viruses. The viruses are tested for their ability to grow in the presence of different concentrations of drugs. Results are obtained by calculating IC50 values for each inhibitor and by reporting the results as IC50 values, expressed in μM concentrations, or by computing the ratio of the IC50 values found for the chimeric virus to the IC50 values found for a wild type susceptible laboratory virus tested in parallel. In the latter case, resistance is expressed as “fold-resistance” compared to a wild-type susceptible HIV-1 strain. In order to meet the need for high-volume testing and a short turn-around time for an individual test, the latest generation of phenotyping assays has undergone further modifications. The use of reporter gene systems for susceptibility testing allows the implementation of laboratory automation and standardization. See Pauwels, et al., J. Virol. Methods 20, 309-321 (1998); Paulous, S., et al., International Workshop on HIV Drug Resistance, Treatment Strategies and Eradication, St. Petersburg, Fla., USA. Abstr. 46 (1997); and Deeks, S. G., et al., 2nd International Workshop on HIV Drug Resistance and Treatment Strategies, Lake Maggiore, Italy. Abstr. 53 (1998).
# The ANTIVIROGRAM® assay (Virco) (WO 97/27480) is based on homologous recombination of patient derived HIV-1 gag/PR/RT sequences into a proviral HIV-1 clone correspondingly deleted for the gag/PR/RT sequences. See Pauwels, et al., J. Virol. Methods 20, 309-321 (1998). A similar assay (Phenosense ViroLogic) is based on enzymatic ligation of patient-derived PR/RT sequences into a correspondingly deleted proviral vector carrying an indicator gene, luciferase, inserted in the deleted HIV-1 envelope gene. See Deeks, S. G., et al., 2nd International Workshop on HIV Drug Resistance and Treatment Strategies, Lake Maggiore, Italy. Abstr. 53 (1998). Hertogs et al. Antimicrob. Agents Chemother. 44(3) 568-573 (2000) the disclosures of which are herein incorporated by reference.
# The methods of monitoring HIV-1 drug resistance, may also be used in combination with phenotypic drug resistance testing of viral isolates. For example, in one embodiment, a phenotypic test is utilized that is based upon the construction of chimeric HIV-1 strains composed of the protease (PR) and reverse transcriptase (RT) gene sequences which are isolated and amplified from the patient viral RNA. These strains may subsequently be recombined inside CD4+ T cells with a standard laboratory isogenic (HXB2) HIV-1 DNA construct from which the PR/RT gene sequences were deleted. The recombinant strains may then be grown in the presence of the above-mentioned antiviral drugs and the susceptibility of the viral isolates may be expressed as fold-change value of the IC50 of the drug on the patient isolates over the IC50 of the drug on a wild-type laboratory reference strain.
smiles,measurement,setting,value
"CC(C)CN(C[C@@H](O)[C@H](Cc1ccccc1)NC(=O)O[C@H]1CCOC1)S(=O)(=O)c1ccc(N)cc1 [Amprenavir, amprenavir]",Fold change in IC50,"Table 12, V055199, genotype 10I + 33F + 54M + 90M",38.7 fold
same,Fold change in IC50,"Table 13, V19263, genotype 77I",0.6 fold
same,Fold change in IC50,"Table 13, V20160, genotype WT",1.0 fold
same,Fold change in IC50,"Table 13, V021667, genotype 10I",1.1 fold
same,Fold change in IC50,"Table 13, V030496, genotype 10I + 77I",0.5 fold
same,Fold change in IC50,"Table 13, V048868, genotype 10I + 54L + 71V + 77I + 90M",4.1 fold
same,Fold change in IC50,"Table 13, V048874, genotype 10I + 33F + 54L + 71V + 77I + 90M",32.1 fold
same,Fold change in IC50,"Table 13, V048875, genotype 10I + 33F + 54L + 71V + 77I + 90M",24.6 fold
same,Fold change in IC50,"Table 13, V048877, genotype 10I + 33F + 77I + 90M",7.9 fold
same,Fold change in IC50,"Table 13, V048880, genotype 10I + 33F + 77I + 90M",3.8 fold
same,Fold change in IC50,"Table 13, V052940, genotype 71V",0.3 fold
same,Fold change in IC50,"Table 13, V052942, genotype 10I + 71V",0.5 fold
same,Fold change in IC50,"Table 13, V052943, genotype 10I + 90M",0.4 fold
same,Fold change in IC50,"Table 13, V052944, genotype 10I + 90M",0.7 fold
same,Fold change in IC50,"Table 13, V052945, genotype 77I + 90M",0.3 fold
same,Fold change in IC50,"Table 13, V052946, genotype 71V + 90M",0.5 fold
same,Fold change in IC50,"Table 13, V052947, genotype 10I + 77I + 90M",1.2 fold
same,Fold change in IC50,"Table 13, V052948, genotype 10I + 71V + 90M",2.0 fold
same,Fold change in IC50,"Table 13, V052949, genotype 10I + 71V + 77I + 90M",0.6 fold
same,Fold change in IC50,"Table 13, V052950, genotype 33F",0.7 fold
same,Fold change in IC50,"Table 13, V052951, genotype 33F + 77I",0.3 fold
same,Fold change in IC50,"Table 13, V052953, genotype 10I + 33F + 77I",1.5 fold
same,Fold change in IC50,"Table 13, V052954, genotype 33F + 77I + 90M",2.1 fold
same,Fold change in IC50,"Table 13, V052955, genotype 33F + 71V + 90M",2.7 fold
same,Fold change in IC50,"Table 13, V052968, genotype 10L/I + 33F/L + 54L + 77I",2.9 fold
same,Fold change in IC50,"Table 13, V052969, genotype 10I + 33F + 54L + 90M",10.4 fold
same,Fold change in IC50,"Table 13, V052970, genotype 54L",0.8 fold
same,Fold change in IC50,"Table 13, V052971, genotype 10I + 54L",2.6 fold
same,Fold change in IC50,"Table 13, V052972, genotype 54L + 77I",1.1 fold
same,Fold change in IC50,"Table 13, V052973, genotype 10I + 54L + 77I",2.1 fold
same,Fold change in IC50,"Table 13, V052974, genotype 10I + 54L + 90M",1.2 fold
same,Fold change in IC50,"Table 13, V052975, genotype 10I + 54L + 71V + 90M",6.2 fold
same,Fold change in IC50,"Table 13, V052976, genotype 10I + 54L + 71V + 77I + 90M",2.0 fold
same,Fold change in IC50,"Table 13, V053832, genotype 10I + 33F",0.6 fold
same,Fold change in IC50,"Table 13, V053854, genotype 54L + 71V",5.0 fold
same,Fold change in IC50,"Virco ID 214846, genotype 10I + 33F + 54V + 71V + 77I + 90M, vs mean IC50 of wild type laboratory HIV strain",4.2 fold
same,Fold change in IC50,"Virco ID V021667, genotype 10I, vs mean IC50 of wild type laboratory HIV strain",1.1 fold
same,Fold change in IC50,"Virco ID V030496, genotype 10I + 77I, vs mean IC50 of wild type laboratory HIV strain",0.5 fold
same,Fold change in IC50,"Virco ID V048876, genotype 33F + 54V + 77I + 90M, vs mean IC50 of wild type laboratory HIV strain",1.1 fold
same,Fold change in IC50,"Virco ID V048877, genotype 10I + 33F + 77I + 90M, vs mean IC50 of wild type laboratory HIV strain",7.9 fold
same,Fold change in IC50,"Virco ID V048880, genotype 10I + 33F + 77I + 90M, vs mean IC50 of wild type laboratory HIV strain",3.8 fold
same,Fold change in IC50,"Virco ID V052940, genotype 71V, vs mean IC50 of wild type laboratory HIV strain",0.3 fold
same,Fold change in IC50,"Virco ID V052942, genotype 10I + 71V, vs mean IC50 of wild type laboratory HIV strain",0.5 fold
same,Fold change in IC50,"Virco ID V052943, genotype 10I + 90M, vs mean IC50 of wild type laboratory HIV strain",0.4 fold
same,Fold change in IC50,"Virco ID V052944, genotype 10I + 90M, vs mean IC50 of wild type laboratory HIV strain",0.7 fold
same,Fold change in IC50,"Virco ID V052946, genotype 71V + 90M, vs mean IC50 of wild type laboratory HIV strain",0.5 fold
same,Fold change in IC50,"Virco ID V052947, genotype 10I + 77I + 90M, vs mean IC50 of wild type laboratory HIV strain",1.2 fold
same,Fold change in IC50,"Virco ID V052948, genotype 10I + 71V + 90M, vs mean IC50 of wild type laboratory HIV strain",2.0 fold
same,Fold change in IC50,"Virco ID V052949, genotype 10I + 71V + 77I + 90M, vs mean IC50 of wild type laboratory HIV strain",0.6 fold
same,Fold change in IC50,"Virco ID V052950, genotype 33F, vs mean IC50 of wild type laboratory HIV strain",0.7 fold
same,Fold change in IC50,"Virco ID V052951, genotype 33F + 77I, vs mean IC50 of wild type laboratory HIV strain",0.3 fold
same,Fold change in IC50,"Virco ID V052953, genotype 10I + 33F + 77I, vs mean IC50 of wild type laboratory HIV strain",1.5 fold
same,Fold change in IC50,"Virco ID V052954, genotype 33F + 77I + 90M, vs mean IC50 of wild type laboratory HIV strain",2.1 fold
same,Fold change in IC50,"Virco ID V052955, genotype 33F + 71V + 90M, vs mean IC50 of wild type laboratory HIV strain",2.7 fold
same,Fold change in IC50,"Virco ID V052957, genotype 10I + 33F + 54V + 90M, vs mean IC50 of wild type laboratory HIV strain",5.2 fold
same,Fold change in IC50,"Virco ID V052958, genotype 10I + 33F + 54V + 77I + 90M, vs mean IC50 of wild type laboratory HIV strain",7.8 fold
same,Fold change in IC50,"Virco ID V052959, genotype 10I + 33F + 54V + 77I + 90M, vs mean IC50 of wild type laboratory HIV strain",7.0 fold
same,Fold change in IC50,"Virco ID V052960, genotype 10I + 33F + 54V + 71V + 90M, vs mean IC50 of wild type laboratory HIV strain",6.4 fold
same,Fold change in IC50,"Virco ID V052961, genotype 54V, vs mean IC50 of wild type laboratory HIV strain",0.5 fold
same,Fold change in IC50,"Virco ID V052962, genotype 10I + 54V, vs mean IC50 of wild type laboratory HIV strain",0.5 fold
same,Fold change in IC50,"Virco ID V052963, genotype 54V + 77I + 90M, vs mean IC50 of wild type laboratory HIV strain",0.5 fold
same,Fold change in IC50,"Virco ID V052964, genotype 54V + 71V + 90M, vs mean IC50 of wild type laboratory HIV strain",0.3 fold
same,Fold change in IC50,"Virco ID V052965, genotype 10I + 54V + 77I + 90M, vs mean IC50 of wild type laboratory HIV strain",0.7 fold
same,Fold change in IC50,"Virco ID V052966, genotype 10I + 54V + 71V + 90M, vs mean IC50 of wild type laboratory HIV strain",1.5 fold
same,Fold change in IC50,"Virco ID V052967, genotype 10I + 54V + 71V + 77I + 90M, vs mean IC50 of wild type laboratory HIV strain",0.4 fold
same,Fold change in IC50,"Virco ID V053358, genotype 33F + 54V + 77I + 90M, vs mean IC50 of wild type laboratory HIV strain",1.0 fold
same,Fold change in IC50,"Virco ID V053831, genotype 33F + 54V, vs mean IC50 of wild type laboratory HIV strain",7.5 fold
same,Fold change in IC50,"Virco ID V053832, genotype 10I + 33F, vs mean IC50 of wild type laboratory HIV strain",0.6 fold
